Measurements as given in ChEMBL document CHEMBL5209590, “Membrane potential based transport assay for SLC7A3 using HEK293 JumpIn SLC7A3 OE cells” (2022).

molecular target: Cationic amino acid transporter 3 (Homo sapiens, UniProt Q8WY07); test: Substrate uptake by the Cationic Amino Acid Transporter (CAT-3, SLC7A3) as assessed by the fluorescent FLIPR membrane potential dye in HEK-293 JumpIN-SLC7A3 cells (PubChem AID: 1745863); assay type: functional, cell-based, HEK293
Sequence (Q8WY07 whole entry): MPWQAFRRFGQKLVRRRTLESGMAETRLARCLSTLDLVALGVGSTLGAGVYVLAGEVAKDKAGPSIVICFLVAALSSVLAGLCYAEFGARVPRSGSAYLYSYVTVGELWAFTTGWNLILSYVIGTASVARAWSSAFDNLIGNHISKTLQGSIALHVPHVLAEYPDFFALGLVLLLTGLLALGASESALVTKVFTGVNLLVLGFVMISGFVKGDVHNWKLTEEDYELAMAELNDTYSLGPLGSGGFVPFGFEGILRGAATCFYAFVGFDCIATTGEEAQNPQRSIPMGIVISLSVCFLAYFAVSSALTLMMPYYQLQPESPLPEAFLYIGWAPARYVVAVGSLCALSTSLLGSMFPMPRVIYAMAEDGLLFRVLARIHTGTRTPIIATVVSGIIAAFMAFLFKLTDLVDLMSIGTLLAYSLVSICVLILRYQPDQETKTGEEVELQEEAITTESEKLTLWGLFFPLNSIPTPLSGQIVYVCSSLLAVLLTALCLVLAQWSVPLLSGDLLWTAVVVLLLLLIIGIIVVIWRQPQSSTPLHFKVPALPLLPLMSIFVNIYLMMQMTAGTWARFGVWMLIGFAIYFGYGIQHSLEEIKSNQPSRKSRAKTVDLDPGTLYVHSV

SMILES	EC50 [µM]
NCCC[C@H](N)C(=O)O	237
N=C(N)NCCC[C@H](N)C(=O)O [ARGININE]	283
NCCCC[C@H](N)C(=O)O [LYSINE]	158
